Molecular target: T1, human V1a receptor (Homo sapiens, UniProt P37288)
T1 construct: expressed in transfected cells; host or cells: HEK293 cells, transiently transfected; cell membranes
Test: human V1a receptor binding (3H-Vasopressin SPA, HEK293 membranes)
Details: displacement of 4 nM 3H-Vasopressin, membranes of HEK293 cells transiently transfected with human V1a receptor; Ki from IC50 by Cheng-Prussoff
Experimental: The human V1a receptor was cloned by RT-PCR from total human liver RNA. The coding sequence was subcloned in an expression vector after sequencing to confirm the identity of the amplified sequence. […] Cell membranes were prepared from HEK293 cells transiently transfected with the expression vector and grown in 20 liter fermenters with the following protocol.
50 g cells are resuspended in 30 ml freshly prepared ice cold Lysis buffer (50 mM HEPES, 1 mM EDTA, 10 mM MgCl2 adjusted to pH=7.4+complete cocktail of protease inhibitor (Roche Diagnostics)). The cells are homogenized with Polytron for 1 min and sonicated on ice for 2×2 minutes at 80% intensity (Vibracell sonicator). The preparation is centrifuged 20 min at 500 g at 4° C., the pellet is discarded and the supernatant centrifuged 1 hour at 43,000 g at 4° C. (19,000 rpm). The pellet is resuspended in 12.5 ml Lysis buffer+12.5 ml Sucrose 20% and homogenized using a Polytron for 1-2 min. The protein concentration is determined by the Bradford method and aliquots are stored at −80° C. until use. For binding studies 60 mg Yttrium silicate SPA beads (Amersham) are mixed with an aliquot of membrane in binding buffer (50 mM Tris, 120 mM NaCl, 5 mM KCl, 2 mM CaCl2, 10 mM MgCl2) for 15 minutes with mixing. 50 ul of bead/membrane mixture is then added to each well of a 96 well plate, followed by 50 ul of 4 nM 3H-Vasopressin (American Radiolabeled Chemicals). For total binding measurement 100 ul of binding buffer are added to the respective wells, for non-specific binding 100 ul of […] cold vasopressin and for compound testing 100 ul of a serial dilution of each compound in 2% DMSO. The plate is incubated 1 h at room temperature, centrifuged 1 min at 1000 g and counted on a Packard Top-Count. Non-specific binding counts are subtracted from each well and data is normalized to the maximum specific binding set at 100%. To calculate an IC 50 the curve is fitted using a non-linear regression model (XLfit), and the Ki is calculated using the Cheng-Prussoff equation.

T1 sequence (P37288 whole entry): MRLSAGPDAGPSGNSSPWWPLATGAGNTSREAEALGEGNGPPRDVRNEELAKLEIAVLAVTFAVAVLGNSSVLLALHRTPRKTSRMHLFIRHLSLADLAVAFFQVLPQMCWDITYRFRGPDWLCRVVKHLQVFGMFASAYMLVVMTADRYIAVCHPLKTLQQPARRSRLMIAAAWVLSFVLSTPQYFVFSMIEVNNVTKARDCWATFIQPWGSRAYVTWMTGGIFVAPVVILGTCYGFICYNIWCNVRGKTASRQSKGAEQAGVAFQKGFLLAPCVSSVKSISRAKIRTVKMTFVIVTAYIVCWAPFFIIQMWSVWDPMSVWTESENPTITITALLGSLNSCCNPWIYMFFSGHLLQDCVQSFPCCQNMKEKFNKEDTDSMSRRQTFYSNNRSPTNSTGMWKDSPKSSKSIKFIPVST

Ki [nM] | SMILES
1.1 | CC(C)(C)OC(=O)Cn1cc(C(=O)N2CCC3(CC2)OC(=O)c2ccccc23)c2ccc(Cl)cc21 [Example 109, tert-Butyl {6-chloro-3-[(3-oxo-1′H,3H-spiro[2-benzofuran-1,4′-piperidin]-1′-yl)carbonyl]-1H-indol-1-yl}acetate]
0.8 | CN(C)C(=O)Cn1cc(C(=O)N2CCC3(CC2)OC(=O)c2cc(F)ccc23)c2ccc(Cl)cc21 [Example 110, 2-{6-Chloro-3-[(5-fluoro-3-oxo-1′H,3H-spiro[2-benzofuran-1,4′-piperidin]-1′-yl)carbonyl]-1H-indol-1-yl}-N,N-dimethylacetamide]
2.4 | CN(C)CCn1cc(C(=O)N2CCC3(CC2)OC(=O)c2cc(F)ccc23)c2ccc(Cl)cc21 [Example 111, 1′-({6-Chloro-1-[2-(dimethylamino)ethyl]-1H-indol-3-yl}carbonyl)-5-fluoro-3H-spiro[2-benzofuran-1,4′-piperidin]-3-one]
2 | CC(C)(C)OC(=O)Cn1cc(C(=O)N2CCC3(CC2)OC(=O)c2cc(F)ccc23)c2ccc(Cl)cc21 [Example 112, tert-Butyl {6-chloro-3-[(5-fluoro-3-oxo-1′H,3H-spiro[2-benzofuran-1,4′-piperidin]-1′-yl)carbonyl]-1H-indol-1-yl}acetate]
1.1 | O=C1OC2(CCN(C(=O)c3cn(CC(=O)N4CCOCC4)c4cc(Cl)ccc34)CC2)c2ccc(F)cc21 [Example 113, 1′-{[6-Chloro-1-(2-morpholin-4-yl-2-oxoethyl)-1H-indol-3-yl]carbonyl}-5-fluoro-3H-spiro[2-benzofuran-1,4′-piperidin]-3-one]
1.3 | CN1CCN(C(=O)Cn2cc(C(=O)N3CCC4(CC3)OC(=O)c3cc(F)ccc34)c3ccc(Cl)cc32)CC1 [Example 114, 1′-({6-Chloro-1-[2-(4-methylpiperazin-1-yl)-2-oxoethyl]-1H-indol-3-yl}carbonyl)-5-fluoro-3H-spiro[2-benzofuran-1,4′-piperidin]-3-one]
10.4 | NC(=O)Cn1cc(C(=O)N2CCC3(CC2)OC(=O)c2cc(F)ccc23)c2ccc(Cl)cc21 [Example 115, 2-{6-Chloro-3-[(5-fluoro-3-oxo-1′H,3H-spiro[2-benzofuran-1,4′-piperidin]-1′-yl)carbonyl]-1H-indol-1-yl}acetamide]

The next lines start with the compound.

SMILES | Ki [nM]
O=C1OC2(CCN(C(=O)c3cn(CC(=O)N4CCCCC4)c4cc(Cl)ccc34)CC2)c2ccccc21 [Example 104, 1′-{[6-Chloro-1-(2-oxo-2-piperidin-1-ylethyl)-1H-indol-3-yl]carbonyl}-3H-spiro[2-benzofuran-1,4′-piperidin]-3-one] | 1.3
O=C1OC2(CCN(C(=O)c3cn(CC(=O)N4CCOCC4)c4cc(Cl)ccc34)CC2)c2ccccc21 [Example 105, 1′-{[6-Chloro-1-(2-morpholin-4-yl-2-oxoethyl)-1H-indol-3-yl]carbonyl}-3H-spiro[2-benzofuran-1,4′-piperidin]-3-one] | 2.3
CN(C)C(=O)Cn1cc(C(=O)N2CCC3(CC2)OC(=O)c2ccccc23)c2ccc(Cl)cc21 [Example 106, 2-{6-Chloro-3-[(3-oxo-1′H,3H-spiro[2-benzofuran-1,4′-piperidin]-1′-yl)carbonyl]-1H-indol-1-yl}-N,N-dimethylacetamide] | 0.4
CCN(CC)C(=O)Cn1cc(C(=O)N2CCC3(CC2)OC(=O)c2ccccc23)c2ccc(Cl)cc21 [Example 107, 2-{6-Chloro-3-[(3-oxo-1′H,3H-spiro[2-benzofuran-1,4′-piperidin]-1′-yl)carbonyl]-1H-indol-1-yl}-N,N-diethylacetamide] | 1.3
O=C1OC2(CCN(C(=O)c3cn(C(=O)N4CCCCC4)c4cc(Cl)ccc34)CC2)c2ccccc21 [Example 108, 1′-{[6-Chloro-1-(piperidin-1-ylcarbonyl)-1H-indol-3-yl]carbonyl}-3H-spiro[2-benzofuran-1,4′-piperidin]-3-one] | 6.2
